Laboratory results published in patent US12448389B2, “BRM targeting compounds and associated methods of use” (Prelude Therapeutics Incorporated, priority 2020, dated 2025).

Experiments:
[1] = target: T1, SMARCA2-HiBiT (Homo sapiens, UniProt P51531); test: SMARCA2 HiBiT degradation assay in HeLa cells; format: cell-based; settings: 18 hours incubation; for DC50: read-out: HeLa_HiBit-SM2 DC50; for Dmax: HeLa, read-out: HeLa-HiBit-SM2 Dmax (%)
T1 construct: SMARCA2-HiBiT knock-in Hela monoclonal cell (CS302366); host or cells: HeLa monoclonal knock-in line (CRISPR HiBiT knock-in at the endogenous locus, heterozygous)
T1 sequence (P51531 whole entry): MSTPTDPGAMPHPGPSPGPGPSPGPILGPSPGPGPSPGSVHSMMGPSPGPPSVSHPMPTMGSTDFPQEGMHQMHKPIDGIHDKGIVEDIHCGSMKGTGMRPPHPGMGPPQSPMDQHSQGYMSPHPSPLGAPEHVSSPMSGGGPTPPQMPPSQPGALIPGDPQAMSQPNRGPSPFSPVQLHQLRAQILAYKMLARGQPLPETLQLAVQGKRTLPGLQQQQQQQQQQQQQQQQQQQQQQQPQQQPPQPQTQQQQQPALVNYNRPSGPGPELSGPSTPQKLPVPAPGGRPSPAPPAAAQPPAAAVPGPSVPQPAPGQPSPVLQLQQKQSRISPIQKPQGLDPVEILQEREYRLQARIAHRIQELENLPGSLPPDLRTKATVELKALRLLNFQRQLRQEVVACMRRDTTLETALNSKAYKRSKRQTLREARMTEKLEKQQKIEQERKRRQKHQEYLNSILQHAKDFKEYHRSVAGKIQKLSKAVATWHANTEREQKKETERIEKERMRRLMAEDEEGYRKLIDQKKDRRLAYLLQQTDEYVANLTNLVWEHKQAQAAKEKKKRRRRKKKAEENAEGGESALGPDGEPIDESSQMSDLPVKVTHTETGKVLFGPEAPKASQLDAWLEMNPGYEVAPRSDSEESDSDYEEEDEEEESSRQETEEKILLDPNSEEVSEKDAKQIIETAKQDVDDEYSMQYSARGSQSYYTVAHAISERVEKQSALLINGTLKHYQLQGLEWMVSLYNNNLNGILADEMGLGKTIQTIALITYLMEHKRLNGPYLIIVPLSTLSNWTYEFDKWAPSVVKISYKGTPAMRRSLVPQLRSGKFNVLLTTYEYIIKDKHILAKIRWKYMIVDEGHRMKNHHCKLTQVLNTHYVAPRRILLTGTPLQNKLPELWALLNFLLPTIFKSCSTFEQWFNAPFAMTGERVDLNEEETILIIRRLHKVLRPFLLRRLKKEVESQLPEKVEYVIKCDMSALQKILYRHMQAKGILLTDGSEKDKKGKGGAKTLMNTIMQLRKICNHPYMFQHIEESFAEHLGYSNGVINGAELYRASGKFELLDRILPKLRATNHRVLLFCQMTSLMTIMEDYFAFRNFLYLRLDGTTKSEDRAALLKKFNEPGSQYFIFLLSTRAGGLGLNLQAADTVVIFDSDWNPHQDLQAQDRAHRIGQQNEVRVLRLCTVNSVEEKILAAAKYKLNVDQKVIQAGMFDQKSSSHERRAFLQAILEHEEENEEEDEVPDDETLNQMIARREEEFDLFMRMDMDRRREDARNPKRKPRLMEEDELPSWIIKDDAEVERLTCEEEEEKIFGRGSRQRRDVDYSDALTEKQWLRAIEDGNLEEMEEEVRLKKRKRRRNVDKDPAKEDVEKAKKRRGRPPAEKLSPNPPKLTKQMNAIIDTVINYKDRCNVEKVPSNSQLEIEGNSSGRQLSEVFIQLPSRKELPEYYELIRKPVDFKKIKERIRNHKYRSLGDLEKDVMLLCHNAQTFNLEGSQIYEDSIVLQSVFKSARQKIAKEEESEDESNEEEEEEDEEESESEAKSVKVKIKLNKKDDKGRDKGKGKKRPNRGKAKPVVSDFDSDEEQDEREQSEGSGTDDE
How it was run: (§1)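 HeLa monoclonal lines with heterozygous HiBiT knock-in were seeded at 2500 cells/well in EMEM with 10% FBS and treated with compound for 18 h at 37 °C. Remaining tagged protein was measured by Nano-Glo HiBiT lytic luminescence after 30–60 min at RT, and values came from curve fitting.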

[2] = target: T2, SMARCA4-HiBiT (Homo sapiens, UniProt P51532); test: SMARCA4 HiBiT degradation assay in HeLa cells; format: cell-based; settings: 18 hours incubation; for DC50: read-out: HeLa-HiBit-SM4 DC50; for Dmax: HeLa, read-out: HeLa-HiBit-SM4 Dmax (%)
T2 construct: SMARCA4-HiBiT knock-in Hela monoclonal cell (CS3023226); host or cells: HeLa monoclonal knock-in line (CRISPR HiBiT knock-in at the endogenous locus, heterozygous)
T2 sequence (P51532 whole entry): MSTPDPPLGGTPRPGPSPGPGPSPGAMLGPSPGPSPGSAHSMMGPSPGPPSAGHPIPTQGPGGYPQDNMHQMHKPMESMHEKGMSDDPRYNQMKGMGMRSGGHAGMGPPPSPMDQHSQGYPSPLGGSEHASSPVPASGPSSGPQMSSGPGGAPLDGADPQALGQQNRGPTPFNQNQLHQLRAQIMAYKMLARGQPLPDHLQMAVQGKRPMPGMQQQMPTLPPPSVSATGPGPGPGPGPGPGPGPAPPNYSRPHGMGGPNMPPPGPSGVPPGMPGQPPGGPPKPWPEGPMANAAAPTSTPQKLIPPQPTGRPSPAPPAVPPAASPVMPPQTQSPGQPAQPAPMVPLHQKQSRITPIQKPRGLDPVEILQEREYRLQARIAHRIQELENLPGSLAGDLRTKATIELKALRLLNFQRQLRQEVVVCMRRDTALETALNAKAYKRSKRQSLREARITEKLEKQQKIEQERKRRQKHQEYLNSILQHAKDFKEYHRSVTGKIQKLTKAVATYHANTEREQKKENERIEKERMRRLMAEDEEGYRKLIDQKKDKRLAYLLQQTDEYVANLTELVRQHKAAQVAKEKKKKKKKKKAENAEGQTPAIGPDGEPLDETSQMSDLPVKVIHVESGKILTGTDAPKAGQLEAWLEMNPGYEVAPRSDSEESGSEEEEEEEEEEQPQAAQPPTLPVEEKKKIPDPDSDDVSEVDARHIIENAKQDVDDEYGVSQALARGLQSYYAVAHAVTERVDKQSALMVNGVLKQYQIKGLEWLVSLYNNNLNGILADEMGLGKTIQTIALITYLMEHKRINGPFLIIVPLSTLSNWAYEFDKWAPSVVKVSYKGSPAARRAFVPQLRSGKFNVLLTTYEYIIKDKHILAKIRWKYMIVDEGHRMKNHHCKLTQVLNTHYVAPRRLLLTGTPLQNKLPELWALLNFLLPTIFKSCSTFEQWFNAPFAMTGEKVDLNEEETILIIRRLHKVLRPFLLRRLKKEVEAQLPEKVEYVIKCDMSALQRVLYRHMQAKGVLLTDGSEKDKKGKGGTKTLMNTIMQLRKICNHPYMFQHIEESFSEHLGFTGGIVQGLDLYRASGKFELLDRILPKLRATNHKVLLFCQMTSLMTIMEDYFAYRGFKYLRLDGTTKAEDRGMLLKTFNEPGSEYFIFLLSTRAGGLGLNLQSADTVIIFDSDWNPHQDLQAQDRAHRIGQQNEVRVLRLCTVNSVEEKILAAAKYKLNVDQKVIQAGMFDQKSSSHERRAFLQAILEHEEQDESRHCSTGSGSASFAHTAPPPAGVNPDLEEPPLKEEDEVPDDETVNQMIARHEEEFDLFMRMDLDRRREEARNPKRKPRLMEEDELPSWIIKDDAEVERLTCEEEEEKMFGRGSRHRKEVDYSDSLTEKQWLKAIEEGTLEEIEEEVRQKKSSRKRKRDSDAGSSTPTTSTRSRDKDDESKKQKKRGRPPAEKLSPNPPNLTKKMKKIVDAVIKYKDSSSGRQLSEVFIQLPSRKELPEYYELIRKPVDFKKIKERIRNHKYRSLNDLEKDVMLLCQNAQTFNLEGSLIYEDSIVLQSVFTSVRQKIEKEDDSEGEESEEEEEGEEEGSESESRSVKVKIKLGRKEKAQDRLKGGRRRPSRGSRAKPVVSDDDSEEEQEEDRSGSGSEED
How it was run: as §1

Compound | DC50 [1] | Dmax [1] | DC50 [2] | Dmax [2]
O=C1CCC(N2C(=O)c3ccc(N4CCC(O)(CN5C[C@@H]6[C@@H](CN7CCN8c9cc(-c%10ccccc%10O)nnc9NC[C@H]8C7)[C@@H]6C5)CC4)cc3C2=O)C(=O)N1 (stereo partly drawn) [Example 47, 2-(2,6-dioxopiperidin-3-yl)-5-(4-hydroxy-4-(((1R,5S,6s)-6-(((S)-2-(2-hydroxyphenyl)-5,6,6a,7,9,10-hexahydro-811-pyrazino[1′,2′:4,5]pyrazino[2,3-c]pyridazin-8-yl)methyl)-3-azabicyclo[3.1.0]hexan-3-yl)methyl)piperidin-1-yl) isoindoline-1,3-dione] | < 10 nM | > 85% | < 10 nM | 50 to 75%
O=C1CCC(N2C(=O)c3ccc(N4CCC(CN5CCC(O)(CN6CCN7c8cc(-c9ccccc9O)nnc8NC[C@H]7C6)CC5)CC4)cc3C2=O)C(=O)N1 (stereo partly drawn) [Example 38, 2-(2,6-dioxopiperidin-3-yl)-5-(4-((4-hydroxy-4-(((S)-2-(2-hydroxyphenyl)-5,6,6a,7,9,10-hexahydro-8H-pyrazino[1′,2′:4,5]pyrazino[2,3-c]pyridazin-8-yl)methyl)piperidin-l-yl)methyl)piperidin-1-yl)isoindoline-1,3-dione] | < 10 nM | > 85% | < 10 nM | > 85%
CN(C1CCN(CC2CCN(c3ccc4c(c3)C(=O)N(C3CCC(=O)NC3=O)C4=O)CC2)CC1)C1C[C@@H]2CNc3nnc(-c4ccccc4O)cc3N2C1 (stereo partly drawn) [Example 29, 2-(2,6-dioxopiperidin-3-yl)-5-(4-((4-(((6aR)-2-(2-hydroxyphenyl)-5,6,6a,7,8,9-hexahydropyrrolo[1′,2′:4,5]pyrazino[2,3-c]pyridazin-8-yl)(methyl)amino)piperidin-1-yl)methyl)piperidin-1-yl) isoindoline-1,3-dione] | < 10 nM | > 85% | < 10 nM | > 85%
O=C1CCC(N2C(=O)c3ccc(N4CC[C@H](CN5C[C@@H]6[C@H](C5)[C@H]6CN5CCN6c7cc(-c8ccccc8O)nnc7NC[C@H]6C5)[C@H](F)C4)cc3C2=O)C(=O)N1 (stereo partly drawn) [Example 186, 2-(2,6-dioxopiperidin-3-yl)-5-[(3S,4R)-3-fluoro-4-[[(1S,5R)-6-[[(10S)-4-(2-hydroxyphenyl)-1,5,6,8,12-pentazatricyclo[8.4.0.02,7]tetradeca-2(7),3,5-trien-12-yl]methyl]-3-azabicyclo[3.1.0]hexan-3-yl]methyl]piperidin-1-yl]isoindole-1,3-dione] | < 10 nM | 75 to 85% | < 10 nM | 50 to 75%
O=C1CCC(N2C(=O)c3ccc(N4CCC(CNC5CCC(CN6CCN7c8cc(-c9ccccc9O)nnc8NC[C@H]7C6)CC5)CC4)cc3C2=O)C(=O)N1 (stereo partly drawn) [Example 167, 2-(2,6-dioxopiperidin-3-yl)-5-[4-[[[4-[[(10S)-4-(2-hydroxyphenyl)-1,5,6,8,12-pentazatricyclo[8.4.0.02,7]tetradeca-2,4,6-trien-12-yl]methyl]cyclohexyl]amino]methyl]piperidin-1-yl] isoindole-1,3-dione] | < 10 nM | > 85% | < 10 nM | > 85%
C[C@H]1CN2c3cc(-c4ccccc4O)nnc3NC[C@H]2CN1C(=O)N1CCN(CC2CCN(c3ccc4c(c3)C(=O)N(C3CCC(=O)NC3=O)C4)CC2)CC1 (stereo partly drawn) [Example 99, 3-(6-(4-((4-((6aS,9S)-2-(2-hydroxyphenyl)-9-methyl-6,6a,7,8,9,10-hexahydro-5H-pyrazino[1′,2′:4,5]pyrazino[2,3-c]pyridazine-8-carbonyl)piperazin-1-yl)methyl)piperidin-1-yl)-1-oxoisoindolin-2-yl)piperidine-2,6-dione] | < 10 nM | > 85% | 10 to 100 nM | 75 to 85%
CC1CN(C(=O)N2CCN3c4cc(-c5ccccc5O)nnc4NC[C@H]3C2)CCN1CC1CCN(c2ccc3c(c2)C(=O)N(C2CCC(=O)NC2=O)C3)CC1 (stereo partly drawn) [Example 106, 3-(6-(4-((4-((S)-2-(2-hydroxyphenyl)-6,6a,7,8,9,10-hexahydro-5H-pyrazino[1′,2′:4,5]pyrazino[2,3-c]pyridazine-8-carbonyl)-2-methylpiperazin-1-yl)methyl)piperidin-1-yl)-1-oxoisoindolin-2-yl)piperidine-2,6-dione] | < 10 nM | > 85% | < 10 nM | 75 to 85%
O=C1CCC(N2C(=O)c3ccc(N4CC(CN5CCN(C(=O)N6CCN7c8cc(-c9ccccc9O)nnc8NC[C@H]7C6)CC5)C4)cc3C2=O)C(=O)N1 (stereo partly drawn) [Example 82, 2-(2,6-dioxopiperidin-3-yl)-5-(3-((4-((S)-2-(2-hydroxyphenyl)-6,6a,7,8,9,10-hexahydro-511-pyrazino[1′,2′:4,5]pyrazino[2,3-c]pyridazine-8-carbonyl)piperazin-1-yl)methyl)azetidin-1-yl) isoindoline-1,3-dione] | < 10 nM | 75 to 85% | < 10 nM | 50 to 75%
O=C1CCC(N2C(=O)c3cccc(N4CCC(N5CCC(N6CCN7c8cc(-c9ccccc9O)nnc8NC[C@H]7C6)CC5)CC4)c3C2=O)C(=O)N1 (stereo partly drawn) [Example 66, 2-(2,6-dioxopiperidin-3-yl)-4-(4-((S)-2-(2-hydroxyphenyl)-5,6,6a,7,9,10-hexahydro-8H-pyrazino[1′,2′:4,5]pyrazino[2,3-c]pyridazin-8-yl)-[1,4′-bipiperidin]-1′-yl) isoindoline-1,3-dione] | < 10 nM | > 85% | < 10 nM | > 85%
O=C1CCC(N2C(=O)c3ccc(Nc4cnn(CCN5CCC(N6CCN7c8cc(-c9ccccc9O)nnc8NC[C@H]7C6)CC5)c4)cc3C2=O)C(=O)N1 (stereo partly drawn) [Example 245, 2-(2,6-dioxopiperidin-3-yl)-5-((1-(2-(4-((S)-2-(2-hydroxyphenyl)-5,6,6a,7,9,10-hexahydro-8H-pyrazino[1′,2′:4,5]pyrazino[2,3-c]pyridazin-8-yl)piperidin-1-yl)ethyl)-1H-pyrazol-4-yl)amino)isoindoline-1,3-dione] | < 10 nM | 50 to 75% | 10 to 100 nM | 50 to 75%
CC1CN(c2ccc3c(c2)C(=O)N(C2CCC(=O)NC2=O)C3=O)CCC1CN1CCC(CN2CCN3c4cc(-c5ccccc5O)nnc4NC[C@H]3C2)CC1 (stereo partly drawn) [Example 170, 2-(2,6-dioxopiperidin-3-yl)-5-[4-[[4-[[(10S)-4-(2-hydroxyphenyl)-1,5,6,8,12-pentazatricyclo[8.4.0.02,7]tetradeca-2(7),3,5-trien-12-yl]methyl]piperidin-1-yl]methyl]-3-methylpiperidin-1-yl]isoindole-1,3-dione] | < 10 nM | > 85% | < 10 nM | > 85%
O=C1CCC(N2C(=O)c3ccc(N4CCO[C@H](CN5C[C@@H]6[C@H](C5)[C@H]6CN5CCN6c7cc(-c8ccccc8O)nnc7NC[C@H]6C5)C4)cc3C2=O)C(=O)N1 (stereo partly drawn) [Example 52, 2-(2,6-dioxopiperidin-3-yl)-5-((R)-2-(((1R,5S,6S)-6-(((S)-2-(2-hydroxyphenyl)-5,6,6a,7,9,10-hexahydro-8H-pyrazino[1′,2′:4,5]pyrazino[2,3-c]pyridazin-8-yl)methyl)-3-azabicyclo[3.1.0]hexan-3-yl)methyl)morpholino)isoindoline-1,3-dione] | < 10 nM | > 85% | < 10 nM | 75 to 85%
